Test results published in patent publication US11767341B2, “Lincosamide antibiotics and uses thereof” (President and Fellows of Harvard College, priority 2017, dated 2023).
Values after ≈ are worked out from the molar mass of the structure shown. Read-outs that look alike come from different tables or passages of the source.

Columns and labels:
Assay in all cases: MIC determination
Type in all cases: cell-based
[1] = system: P. aeruginosa MMX 3476 Δmex; conditions: Pseudomonas aeruginosa
E. faecalis ATCC 29212 = conditions: Enterococcus faecalis
P. aeruginosa ATCC 27853 = conditions: Pseudomonas aeruginosa, ATCC27853
S. aureus ATCC 29213 = conditions: Staphylococcus aureus
E. coli MMX 0121 ΔTolC = conditions: Escherichia coli
S. pneumoniae ATCC 49619 = conditions: Streptococcus pneumoniae, ATCC49619; S. pneumoniae ATCC 49619; read-out: MIC
S. aureus MMX 3035 cErmA = conditions: Staphylococcus aureus, MMX3035CERMA
S. aureus BAA 977 iErmA = conditions: Staphylococcus aureus, BAA977
S. pyogenes ATCC 19615 = conditions: Streptococcus pyogenes, ATCC19615
[2] = system: E. faecalis MMX 847 Macrolide-Resistant; conditions: Enterococcus faecalis
[3] = system: S. pyogenes MMX 946 Macrolide-Resistant; conditions: Streptococcus pyogenes
[4] = system: S. aureus Micromyx USA 300; conditions: Staphylococcus aureus, USA300
[5] = system: S. pneumoniae MMX 3028 cErmB; conditions: Streptococcus pneumoniae, MMX3028CERMB
E. coli ATCC 25922 = conditions: Escherichia coli
[6] = system: S. pneumoniae MMX 3031 cMefA; conditions: Streptococcus pneumoniae, MMX3031CMEFA
[7] = system: E. coli MMX TolC parent strain; conditions: Escherichia coli
[8] = system: P. aeruginosa MMX Mex parent strain; conditions: Pseudomonas aeruginosa
C. difficile BAA 1805 = conditions: Clostridioides difficile, BAA1805
B. fragilis ATCC 25285 = conditions: Bacteroides fragilis, ATCC25285
H. influenzae ATCC 49247 = conditions: Haemophilus influenzae, ATCC49247
[9] = system: S. aureus MP-549 msr(a) USA 300; conditions: Staphylococcus aureus, USA300, S. aureus MP-549 msr(a) USA 300
K. pneumoniae ATCC 10031 = conditions: Klebsiella pneumoniae, ATCC10031; K. pneumoniae ATCC 10031; read-out: MIC
E. coli MP-9 ΔTolC = conditions: Escherichia coli
[10] = S. pyogenes ATCC 19615, read-out: MIC
[11] = C. difficile BAA 1805, read-out: MIC
[12] = ATCC29213, S. aureus ATCC 29213, read-out: MIC
[13] = S. pneumoniae MMX 3028 cErmB, read-out: MIC
[14] = B. fragilis ATCC 25285, read-out: MIC

Row | SMILES | MIC [1] | MIC (E. faecalis ATCC 29212; ATCC29212) | MIC (P. aeruginosa ATCC 27853) | MIC (S. aureus ATCC 29213; ATCC29213) | MIC (E. coli MMX 0121 ΔTolC) | MIC (S. pneumoniae ATCC 49619) | MIC (S. aureus MMX 3035 cErmA) | MIC (S. aureus BAA 977 iErmA) | MIC (S. pyogenes ATCC 19615; [10]) | MIC [2] | MIC [3] | MIC [4] | MIC [5] | MIC (E. coli ATCC 25922; ATCC25922) | MIC [6] | MIC [7] | MIC [8] | MIC (C. difficile BAA 1805) | MIC (B. fragilis ATCC 25285) | MIC (H. influenzae ATCC 49247) | other results
1 | Cc1ccc(S(=O)(=O)OCC2O[C@H]([C@H](NC(=O)[C@H]3NC[C@@H]4CC=CCO[C@H]43)[C@@H](C)O)C(O)[C@@H](O)[C@H]2O)cc1 (stereo partly shown) [FSA-211030] | > 64 µg/mL | > 64 µg/mL | > 64 µg/mL | > 64 µg/mL | > 64 µg/mL | 32 µg/mL (≈ 57.5 µM) | > 64 µg/mL | > 64 µg/mL | 1 µg/mL (≈ 1.8 µM) | > 64 µg/mL | > 64 µg/mL | > 64 µg/mL | > 64 µg/mL | > 64 µg/mL | 32 µg/mL (≈ 57.5 µM) | > 64 µg/mL | > 64 µg/mL | > 64 µg/mL | > 64 µg/mL | > 64 µg/mL | –
2 | C[C@@H](O)[C@@H](NC(=O)[C@H]1NC[C@@H]2CC=CCO[C@H]21)[C@H]1OC(CN=[N+]=[N-])[C@H](O)[C@H](O)C1O (stereo partly shown) [FSA-211064] | > 64 µg/mL | > 64 µg/mL | > 64 µg/mL | > 64 µg/mL | > 64 µg/mL | 16 µg/mL (≈ 37.4 µM) | > 64 µg/mL | > 64 µg/mL | 4 µg/mL (≈ 9.36 µM) | > 64 µg/mL | > 64 µg/mL | > 64 µg/mL | > 64 µg/mL | > 64 µg/mL | 16 µg/mL (≈ 37.4 µM) | > 64 µg/mL | > 64 µg/mL | – | > 64 µg/mL | > 64 µg/mL | MIC (C. difficile BAA 1805; [11]): 64 µg/mL (≈ 150 µM)
3 | CSC1O[C@H]([C@H](NC(=O)[C@@H]2[C@@H]3OCC=CC[C@H]3CN2C)[C@H](C)Sc2ccc(-c3cccnc3)cc2)C(O)[C@@H](O)[C@H]1O (stereo partly shown) [FSA-213064] | – | – | – | – | – | ≤ 0.125 µg/mL | 16 µg/mL (≈ 26.6 µM) | 0.25 µg/mL (≈ 0.415 µM) | ≤ 0.125 µg/mL | – | – | – | – | – | 0.125 µg/mL (≈ 0.208 µM) | – | – | – | – | – | MIC [9]: 0.25 µg/mL (≈ 0.415 µM); MIC (E. faecalis ATCC 29212; ATCC29212, read-out: MIC): 32 µg/mL (≈ 53.2 µM); MIC (P. aeruginosa ATCC 27853; P. aeruginosa ATCC 27853, read-out: MIC): > 64 µg/mL; MIC (S. aureus ATCC 29213; [12]): 0.25 µg/mL (≈ 0.415 µM); MIC ([2]; E. faecalis MMX 847 Macrolide-Resistant (MacRes), read-out: MIC): > 64 µg/mL; MIC ([3]; S. pyogenes MMX 946 Macrolide-Resistant (MacRes), read-out: MIC): 2 µg/mL (≈ 3.32 µM); MIC [5, 13]: 8 µg/mL (≈ 13.3 µM); MIC (E. coli ATCC 25922; ATCC25922, E. coli ATCC 25922, read-out: MIC): > 64 µg/mL; MIC (K. pneumoniae ATCC 10031): 64 µg/mL (≈ 106 µM); MIC (E. coli MP-9 ΔTolC): 16 µg/mL (≈ 26.6 µM)
4 | CSC1O[C@H]([C@H](NC(=O)[C@H]2NC[C@@H]3C=C(c4ccccc4)CCO[C@@H]23)[C@H](C)Cl)C(O)[C@@H](O)[C@H]1O (stereo partly shown) [FSA-507031] | > 32 µg/mL | > 32 µg/mL | > 32 µg/mL | > 32 µg/mL | > 32 µg/mL | 32 µg/mL (≈ 62.4 µM) | > 32 µg/mL | > 32 µg/mL | 32 µg/mL (≈ 62.4 µM) | > 32 µg/mL | > 32 µg/mL | > 32 µg/mL | > 32 µg/mL | > 32 µg/mL | 16 µg/mL (≈ 31.2 µM) | > 32 µg/mL | > 32 µg/mL | > 32 µg/mL | – | – | MIC (B. fragilis ATCC 25285; [14]): 32 µg/mL (≈ 62.4 µM); MIC (H. influenzae ATCC 49247; H. influenzae ATCC 49247, read-out: MIC): 8 µg/mL (≈ 15.6 µM)
5 | C=CC1=CCO[C@@H]2[C@H](CN[C@@H]2C(=O)N[C@H]([C@H](C)Cl)[C@H]2OC(SC)[C@H](O)[C@H](O)C2O)C1 (stereo partly shown) [FSA-507041] | > 32 µg/mL | – | > 32 µg/mL | – | 16 µg/mL (≈ 34.6 µM) | ≤ 0.03 µg/mL | > 32 µg/mL | 0.5 µg/mL (≈ 1.08 µM) | 0.06 µg/mL (≈ 0.13 µM) | > 32 µg/mL | > 32 µg/mL | – | – | > 32 µg/mL | ≤ 0.03 µg/mL | > 32 µg/mL | > 32 µg/mL | – | – | 16 µg/mL (≈ 34.6 µM) | MIC (E. faecalis ATCC 29212; ATCC29212, read-out: MIC): 2 µg/mL (≈ 4.32 µM); MIC (S. aureus ATCC 29213; [12]): 0.5 µg/mL (≈ 1.08 µM); MIC ([4]; S. aureus Micromyx USA 300, read-out: MIC): 0.25 µg/mL (≈ 0.54 µM); MIC [5, 13]: 32 µg/mL (≈ 69.1 µM); MIC (C. difficile BAA 1805; [11]): 0.5 µg/mL (≈ 1.08 µM); MIC (B. fragilis ATCC 25285; [14]): 2 µg/mL (≈ 4.32 µM)
6 | CSC1O[C@H]([C@H](NC(=O)[C@H]2NC[C@H]3CC=CCO[C@H]32)[C@H](C)Cl)C(O)[C@@H](O)[C@H]1O (stereo partly shown) [FSA-507051] | > 32 µg/mL | > 32 µg/mL | > 32 µg/mL | 16 µg/mL (≈ 36.6 µM) | > 32 µg/mL | 1 µg/mL (≈ 2.29 µM) | > 32 µg/mL | 16 µg/mL (≈ 36.6 µM) | – | > 32 µg/mL | 32 µg/mL (≈ 73.2 µM) | 16 µg/mL (≈ 36.6 µM) | > 32 µg/mL | 32 µg/mL (≈ 73.2 µM) | 1 µg/mL (≈ 2.29 µM) | > 32 µg/mL | > 32 µg/mL | > 32 µg/mL | 32 µg/mL (≈ 73.2 µM) | 16 µg/mL (≈ 36.6 µM) | MIC (S. pyogenes ATCC 19615): 0.5 µg/mL (≈ 1.14 µM)
